For assay [1], the system named is A549 cells. The assay is described as follows: Phosphoinositide quantification by mass spectrometry, A549. In kind it is cell-based, human. As to conditions: A549, 2 min. On the procedure:
A549 cells (5.10^5) or wild-type MEFs (3.10^5) were plated in complete media onto 3.5 cm dishes or 60 mm dishes respectively for 24 h, prior to FCS-free starvation media for 16 h. MEFs, in addition, were supplemented with arachidonic acid in the FCS-free starvation media as previously described. […] Reactions were terminated in 600 μl ice-cold 1 M HCl and cells scraped and resuspended, then divided into two equal samples in eppendorfs. […] The data are shown as response ratios, calculated by normalizing the multiple reaction monitoring (MRM)-targeted lipid integrated response area to that of a known amount of relevant internal standard. To account for any cell input variability, PIP3 response ratios were normalized to C38:4-PI response ratios; while PI(3,4)P2 response ratios were normalised to PI(4,5)P2 response ratios. Data shown are mean ±SD for n ≥3, except for non-DMSO control in MEF PIP3 measurements where n=1.

The target of assay [2] is LCK (Homo sapiens, UniProt P06239). In words: SelectScreen kinase profiling, LCK. The format is biochemical. Here is the method: 133 protein kinases and 7 lipid kinases were counterscreened, with 1938 used at 1 μM, using the Adapta, Lantha and Z-LYTE assays (SelectScreen Kinase Profiling Service; Thermofisher – experimental details of these assays can be found here: https://www.thermofisher.com/uk/en/home/industrial/pharma-biopharma/drug-discovery-development/target-and-lead-identification-and-validation/kinasebiology/kinase-activity-assays.html. The tree represention in KinMap[59] generated courtesy of Cell Signaling Technology, Inc. (www.cellsignal.com). mTORC1 (mTOR/RAPTOR/LST8) protein complex and ATM kinase and substrates were produced as previously described[57],[60]. Screening of 1938 was conducted using SuperSep Phos-Tag 50 μmol/l 100 x 100 x 6.6 mm 17-well (192-18001/199-18011) gels. For ATM assays, 100 nM ATM was incubated for 30 min at 30°C with 5 μM GST-p53 and 1 mM ATP, in the absence or presence of 200 μM 1938 in ATM Kinase Buffer (50 mM HEPES pH 7.5, 100 mM NaCl, 10% glycerol, 2 mM […], 5 mM MgCl2). As a positive control for ATM activation, the same reaction was carried out with 100 nM ATM/5 μM GST-p53/1 mM ATP in the presence of 100 nM Mre11-Rad50-Nbs1 (MRN) complex, a known activator of ATM[61]. For mTORC1 assays, 50 nM mTORC1 complex (mTOR/LST8/RAPTOR) was incubated for 3 h at 30°C with 15 μM 4E-BP1, 10 mM MgCl2 and 250 μM ATP, in the absence or presence of 200 μM 1938. As a ‘positive’ control, a higher concentration (150 nM) of mTORC1 complex (mTOR/LST8/RAPTOR) was incubated for 3 h at 30°C with 15 μM 4E-BP1, 10 mM MgCl2 and 250 μM ATP. Kinase reactions were quenched by addition of SDS-PAGE Loading Buffer (as per manufacturer’s instructions) and freezing at -20°C before being run on the Phos-tag gels at 150 V for 90 min. Gels were then stained using InstantBlue™ Coomassie, and quantified using BioRad Image Lab Software. Kinase assays were carried out in triplicate.

In assay [3] the test system is PI3Kα-WT MEFs. The assay is described as follows: Cell cycle progression by EdU staining, PI3Kα-WT MEFs. As to conditions: 24h; BYL719 as co-treatment with 1938. The format is cell-based, mouse. On the procedure: The Click-IT EdU protocol was used according to manufacturer instructions (Sigma-Aldrich #BCK-FC488-50). Briefly, MEFs were seeded at 50,000 cells per well in 6-well plates in DMEM supplemented with 10% FBS and 1% P/S, and allowed to attach overnight. The next day, cells were serum-starved for 5 h prior to compound addition for 24 h in fresh serum-free DMEM. Cells were then pulsed for 3 h with 10 μM EdU, followed by collection by trypsinization and fixation with 3.7% FA in PBS for 15 min in the dark, washed in 3% BSA and permeabilized in 1x saponin-based permeabilization buffer for 20 min in the dark. EdU was then detected using the FAM-azide assay cocktail for 30 min in the dark. Cells were washed twice in 1x saponin-based permeabilization buffer followed by analysis with flow cytometer (Novocyte Advanteon flow cytometer, Agilent). Gating strategy for flow cytometry is shown in Supplementary Fig. 2.

In assay [4] the test system is PI3Kα-WT MEFs. The assay is described as follows: Cell number by crystal violet staining, PI3Kα-WT MEFs. The format is cell-based, mouse. The note with it: 24h. On the procedure:
MEFs were seeded at 5000 cells per well in 96-well plates in DMEM supplemented with 10% FBS and 1% P/S, and allowed to attach overnight. The next day, cells were serum-starved for 5 h prior to compound addition in fresh serum-free DMEM. After different time points, cells were rapidly washed with distilled H2O before fixed and stained in a solution of 0.5% crystal violet (Sigma-Aldrich #C0775) in 20% methanol (v:v) as described. Briefly, after 20 min incubation at room temperature on a rocking platform, fixed and stained cells were washed 3 times with distilled H2O and plates air-dried overnight. 200 μl methanol was next added to each well and the plates were incubated at room temperature for 20 min on a bench rocker, followed by measurement of optical density at 570 with a plate reader.

Like-named read-outs stand apart in the source and are kept apart here.

Chain of LCK (P06239 whole entry): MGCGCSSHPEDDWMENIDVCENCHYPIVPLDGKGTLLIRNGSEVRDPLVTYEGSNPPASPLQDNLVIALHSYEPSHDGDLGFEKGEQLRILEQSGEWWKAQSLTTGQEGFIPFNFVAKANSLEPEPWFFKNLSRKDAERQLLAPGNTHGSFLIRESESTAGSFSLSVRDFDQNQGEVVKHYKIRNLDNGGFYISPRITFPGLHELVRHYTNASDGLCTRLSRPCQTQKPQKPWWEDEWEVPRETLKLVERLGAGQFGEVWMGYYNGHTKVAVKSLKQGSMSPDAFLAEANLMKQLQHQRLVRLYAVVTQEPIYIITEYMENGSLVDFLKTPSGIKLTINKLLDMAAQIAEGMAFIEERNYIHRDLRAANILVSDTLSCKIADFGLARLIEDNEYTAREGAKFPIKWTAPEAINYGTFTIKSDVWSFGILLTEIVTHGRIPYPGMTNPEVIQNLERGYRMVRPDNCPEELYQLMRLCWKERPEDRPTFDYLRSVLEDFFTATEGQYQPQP

Regarding `CCN1CCN(c2ccc(Nc3cc(Nc4cccc5c4N(C(C)=O)CC5)ccn3)cc2)CC1` [Compound 1938], in assay [1], the “concentration at which the PIP3 response maxed out” value amounted to 10 µM. In addition, the inhibition (usually the relative decrease from the control value, in per cent) at 1 µM in assay [2] (read-out: % Inhibition Point 1) is 60%; in assay [2] (read-out: % Inhibition Point 2) it was 57%; in assay [2] (read-out: % Inhibition mean), 58%. In assay [3], the “cell cycle progression (EdU incorporation)” value is listed as “induced cell cycle progression”. Also, in assay [4], the “cell number (crystal violet staining)” value is listed as “increase in cell number”.

For “insulin: insulin, canonical activator of PI3Kα, used as positive control”, in assay [1], the PIP3 response result is “strong PIP3 response”. For the same molecule, in assay [3], the “cell cycle progression (EdU incorporation)” value is given as “did not induce cell cycle progression”. In addition, in assay [4], the “cell number (crystal violet staining)” value was “did not induce cell cycle progression and an increase in cell number”.
